# Assay results taken from patent US5834487A, “Inhibition of 26S and 20S proteasome by indanones” (CV Therapeutics, priority 1996, dated 1998).
# Biological target: T1, 20S catalytic subunit of the proteasome (multicatalytic proteinase complex) (Bos taurus, UniProt Q32KL2)
# T1 construct: was purified to homogeneity from bovine brain according to published methods; from tissue; host or cells: bovine brain
# Test: 20S proteasome chymotryptic activity, fluorogenic peptide cleavage
# Type: biochemical, bovine
# Conditions: 50 μM succinyl-leu-leu-val-tyr-7-amino-4-methyl coumarin, 15 minutes at 37° C, pH7.5
# Description: Compounds of this invention prepared according to the method of Example 1 were tested as follows. The 20S catalytic subunit of the proteasome (also known as the multicatalytic proteinase complex) was purified to homogeneity from bovine brain according to published methods (Wilk S. and Orlowski, M, 40 842 J. Neurochem (1983)). The chymotryptic activity of the complex is measured by the increase in fluorescence following cleavage of the substrate peptide succinyl-leucine-leucine-valine-tyrosine-7-amino-4-methyl coumarin. The standard in vitro assay consists of 2 μg 20S proteasome, 0.1-100 μg/ml proteasome inhibitor in 200 μl 50 mM HEPES, containing 0.1% sodium dodecyl sulphate, pH7.5. The proteolytic reaction is initiated by the addition of 50 μM fluorogenic peptide substrate and allowed to progress for 15 minutes at 37° C. The reaction is terminated by the addition of 100 μl of 100 mM acetate buffer, pH4.0. The rate of proteolysis is directly proportional to the amount of liberated aminomethylcoumarin which is measured by fluorescent spectroscopy (EX 370 nm, EM 430 nm).
row,SMILES,IC50 [mg/L]
1,COCCNC(=O)CC1CC(=O)c2ccc(OC)cc21 (stereo not shown) [Compound 117],> 10
2,COc1ccc2c(c1)C(CC(=O)NC(CC(C)C)C(=O)NCCC(C)C)CC2=O (mixture of isomers) [Compound 200],> 10
3,COc1ccc2c(c1)C(CC(=O)NC1CCCC1)CC2=O (stereo not shown) [Compound 74],> 10
4,COc1ccc2c(c1)C(CC(=O)NC(CC(C)C)C(=O)NC(CC(C)C)C(=O)NC(C(N)=O)C(C)C)CC2=O (mixture of isomers) [Compound 124],> 10
5,COc1ccc2c(c1)C(CC(=O)NCC(O)CO)CC2=O (stereo not shown) [Compound 111],> 10
6,COc1ccc2c(c1)C(CC(=O)NC(CC(C)C)C(=O)NCC(=O)NCC(N)=O)CC2=O (mixture of isomers) [Compound 41],> 10
7,COc1ccc2c(c1)C(CC(=O)NC(Cc1ccc(O)cc1)C(=O)NC(CC(C)C)C(N)=O)CC2=O (mixture of isomers) [Compound 102],> 10
8,COc1ccc2c(c1)C(CC(=O)NC(CC(C)C)C(=O)NC(CC(C)C)C(=O)N1CCOCC1)CC2=O (mixture of isomers) [Compound 174],> 10
9,COc1ccc2c(c1)C(CC(=O)NC(CC(C)C)C(=O)NC(Cc1ccccc1)C(N)=O)CC2=O (mixture of isomers) [Compound 56],> 10
10,COc1ccc2c(c1)C(CC(=O)N1CCCC1C(=O)NC(CC(C)C)C(=O)NCC(N)=O)CC2=O (mixture of isomers) [Compound 49],> 10
11,COc1ccc2c(c1)C(CC(=O)N(CCO)Cc1ccccc1)CC2=O (stereo not shown) [Compound 76],> 10
12,COc1ccc2c(c1)C(CC(=O)N1CCC(O)CC1)CC2=O (stereo not shown) [Compound 81],> 10
13,COc1ccc2c(c1)C(CC(=O)NCc1ccc3c(c1)OCO3)CC2=O (racemic) [Compound 163],> 50
14,CCCCC(NC(=O)CC1CC(=O)c2ccc(OC)cc21)C(N)=O (mixture of isomers) [Compound 9],> 10
15,COc1ccc2c(c1)C(CC(=O)NC(CC(C)C)C(=O)NC(CC(C)C)C(=O)NCCO)CC2=O (mixture of isomers) [Compound 178],> 10
16,CCCCC(NC(=O)CC1CC(=O)c2ccc(OC)cc21)C(=O)NC(CC(C)C)C(N)=O (mixture of isomers) [Compound 15],> 10
17,COc1ccc2c(c1)C(CC(=O)N1CCSCC1)CC2=O (stereo not shown) [Compound 106],> 10
18,COc1ccc2c(c1)C(CC(=O)NC(CC(C)C)C(=O)NC(CC(C)C)C(=O)NCCCc1ccccc1)CC2=O (mixture of isomers) [Compound 186],> 10
19,COc1ccc2c(c1)C(CC(=O)NC(CC(C)C)C(=O)NC(CC(C)C)C(=O)NC(C(N)=O)C(C)C)CC2=O (mixture of isomers) [Compound 123],> 10
20,COc1ccc2c(c1)C(CC(=O)NC(CO)C(=O)NC(CC(C)C)C(N)=O)CC2=O (mixture of isomers) [Compound 61],> 10
21,COc1ccc2c(c1)C(CC(=O)NC(CC(C)C)C(=O)NC(C)(C)C(N)=O)CC2=O (mixture of isomers) [Compound 28],> 10

row,SMILES,IC50 [mg/L]
1,COc1ccc2c(c1)C(CC(=O)N1CCC(C)CC1)CC2=O (stereo not shown) [Compound 108],> 10
2,COCCN(CCOC)C(=O)CC1CC(=O)c2ccc(OC)cc21 (racemic) [Compound 169],> 50
3,COc1ccc2c(c1)C(CC(=O)NC(CC(C)C)C(=O)NC(C(N)=O)c1ccccc1)CC2=O (mixture of isomers) [Compound 140],> 10
4,"COc1ccc2c(c1)C(CC(=O)N[C@@H](CC(C)C)C(=O)N[C@H](CC(C)C)C(=O)NCC(N)=O)CC2=O (single isomer, unassigned) [Compound 51]",0.5
5,COc1ccc2c(c1)C(CC(=O)Nc1nc(C)cc(Cl)n1)CC2=O (racemic) [Compound 155],> 10
6,COc1ccc2c(c1)C(CC(=O)N(C)C)CC2=O (racemic) [Compound 167],> 50
7,COc1ccc2c(c1)C(CC(=O)Nc1c(C)cccc1[N+](=O)[O-])CC2=O (racemic) [Compound 153],> 10
8,COc1ccc2c(c1)C(CC(=O)NC(CC(C)C)C(=O)NC(CCC(N)=O)C(N)=O)CC2=O (mixture of isomers) [Compound 137],> 10
9,COc1ccc2c(c1)C(CC(=O)N(c1ccc(O)cc1)c1ccc3ccccc3c1)CC2=O (stereo not shown) [Compound 144],> 10
10,COc1ccc2c(c1)C(CC(=O)NC(CC(C)C)C(=O)NC(CC(C)C)C(=O)N(C)Cc1ccccc1)CC2=O (mixture of isomers) [Compound 180],> 10
11,COc1ccc2c(c1)C(CC(=O)NC(CC(C)C)C(N)=O)CC2=O (mixture of isomers) [Compound 3],> 10
12,COc1ccc2c(c1)C(CC(=O)N(C(C)C)C(C)C)CC2=O (stereo not shown) [Compound 62],> 10
13,COc1ccc2c(c1)C(CC(=O)NC(CCC(N)=O)C(=O)NC(CC(C)C)C(N)=O)CC2=O (mixture of isomers) [Compound 98],> 10
14,CCCC[C@@H](NC(=O)[C@H](CC(C)C)NC(=O)CC1CC(=O)c2ccc(OC)cc21)C(=O)NCC(N)=O (stereo partly shown) [Compound 86],> 10
15,COc1ccc2c(c1)C(CC(=O)N1Cc3ccccc3CC1C(=O)NC(CC(C)C)C(N)=O)CC2=O (mixture of isomers) [Compound 26],> 10
16,CCN(CC)C(=O)CC1CC(=O)c2ccc(OC)cc21 (stereo not shown) [Compound 68],> 10
17,COc1ccc2c(c1)C(CC(=O)N1CCCC1CO)CC2=O (stereo not shown) [Compound 119],> 10
18,COc1ccc2c(c1)C(CC(=O)NC(C(=O)NC(CC(C)C)C(=O)NCC(N)=O)C(C)C)CC2=O (mixture of isomers) [Compound 47],> 10
19,COc1ccc2c(c1)C(CC(=O)N1CCCCC1)CC2=O (stereo not shown) [Compound 67],> 10
20,"COc1ccc2c(c1)C(CC(=O)N[C@@H](CC(C)C)C(=O)N[C@H](CC(C)C)C(=O)NCC(N)=O)CC2=O (single isomer, unassigned) [Compound 50]",0.5
21,COc1ccc2c(c1)C(CC(=O)NC(CC(C)C)C(=O)NC(CC(C)C)C(=O)NCC(N)=O)CC2=O (mixture of isomers) [Compound 18],5

row,SMILES,IC50 [mg/L]
1,COc1ccc2c(c1)C(CC(=O)NC(CCC(=O)O)C(=O)NC(CC(C)C)C(N)=O)CC2=O (mixture of isomers) [Compound 97],> 10
2,COc1ccc2c(c1)C(CC(=O)NC(CC(C)C)C(=O)NC(CC(C)C)C(=O)NCC1CCCCC1)CC2=O (mixture of isomers) [Compound 188],> 10
3,COc1ccc2c(c1)C(CC(=O)NC1CCc3ccccc31)CC2=O (stereo not shown) [Compound 83],> 10
4,COc1ccc(NC(=O)CC2CC(=O)c3ccc(OC)cc32)cc1 (racemic) [Compound 162],> 50
5,COc1ccc2c(c1)C(CC(=O)NC(CO)C(O)c1ccccc1)CC2=O (stereo not shown) [Compound 118],> 10
6,COc1ccc2c(c1)C(CC(=O)NC(CC(C)C)C(=O)N1CCCC1C(N)=O)CC2=O (mixture of isomers) [Compound 54],> 10
7,COc1ccc2c(c1)C(CC(=O)NCCCc1ccccc1)CC2=O (racemic) [Compound 161],> 50
8,COc1ccc2c(c1)C(CC(=O)Nc1ccnc(S)n1)CC2=O (racemic) [Compound 158],> 10
9,COc1ccc2c(c1)C(CC(=O)NC(CC(C)C)C(=O)NC(CC(C)C)C(=O)N(C)Cc1ccccc1)CC2=O (mixture of isomers) [Compound 179],> 10
10,COc1ccc2c(c1)C(CC(=O)N[C@@H](CC(C)C)C(=O)N[C@H](CC1CCCCC1)C(=O)NCC(N)=O)CC2=O (stereo partly shown) [Compound 89],> 10
11,COc1ccc2c(c1)C(CC(=O)NC(CC(C)C)C(=O)NC(CC(C)C)C(=O)NC(C)(C)C(N)=O)CC2=O (mixture of isomers) [Compound 170],> 10
12,CCCCC(NC(=O)CC1CC(=O)c2ccc(OC)cc21)C(=O)NC(CC(C)C)C(=O)NCC(N)=O (mixture of isomers) [Compound 43],> 10
13,COc1ccc2c(c1)C(CC(=O)Nc1ccc(Cl)cn1)CC2=O (racemic) [Compound 156],> 10
14,CCCC(NC(=O)CC1CC(=O)c2ccc(OC)cc21)C(N)=O (mixture of isomers) [Compound 10],> 10
15,CCCCC(NC(=O)C(CC(C)C)NC(=O)CC1CC(=O)c2ccc(OC)cc21)C(N)=O (mixture of isomers) [Compound 134],> 10
16,COc1ccc2c(c1)C(CC(=O)NC(CC(C)C)C(N)=O)CC2=O (mixture of isomers) [Compound 1],5
17,COc1ccc2c(c1)C(CC(=O)NC(C(=O)NC(CC(C)C)C(N)=O)c1ccccc1)CC2=O (mixture of isomers) [Compound 37],> 10
18,COc1ccc2c(c1)C(CC(=O)NCC(=O)NC(CC(C)C)C(=O)NCC(N)=O)CC2=O (mixture of isomers) [Compound 42],> 10
19,COc1ccc2c(c1)C(CC(=O)N(C)Cc1ccccc1)CC2=O (stereo not shown) [Compound 73],> 10
